Reference: publication PMC12297304, “Molecular networking derived from untargeted LC-MS/MS analysis to discover inhibitors of RANKL-induced osteoclastogenesis from Egyptian marine sponge-associated fungi” (Scientific Reports, 2025)
pIC50: −log10 of the molar value. “Also recorded” adds a separate entry of the source.

Experiments:
[1] = test system: RANKL-induced formation of MNCs from RAW264 macrophages; test: Multinucleated TRAP+ve osteoclast (MNCs) counting assay; type: cell-based, murine; details: Mus musculus, RAW264.7, 96 h; RAW264 cells, RANKL 50 ng/mL, 4 days; read-out: IC50, inhibition of RANKL-induced formation of multinucleated osteoclasts (MNCs)
Method: EtOAc fractions of all fungal CH3OH extracts were tested for their ability to inhibit TRAP activity and the formation of multinucleated osteoclasts (MNCs) in RANKL-treated RAW264 macrophages as previously reported[7],[24]. Briefly, RAW264 cells (RIKEN Cell Bank, Tsukuba) were cultured in MEMα medium supplemented with 10% heat-inactivated fetal bovine serum and 1% penicillin/streptomycin and incubated at 37 °C in a 5% CO2 humidified atmosphere in two 96-well plates at a density of 1000 and 6000 cells/well, for TRAP assay and MNCs staining assay, respectively. Samples were then added at a concentration of 50 and 20 µg/mL for extracts, 50, 20, and 10 µM for pure compounds, and 83 µM for the standard quercetin. […]
Following a 4-day incubation period, the differentiated cells were fixed with 4% paraformaldehyde solution (Sigma–Aldrich, USA), washed with PBS, and stained using a TRAP-staining solution, which consisted of 50 mM sodium tartrate, 45 mM sodium acetate, 0.1 mg/mL naphthol AS-MX phosphate (Sigma– Aldrich, USA), and 0.6 mg/mL fast red violet LB salt (Sigma–Aldrich, USA), pH 5.2, for 1 h or longer at room temperature. TRAP-positive cells, that stained red and contained 3 or more nuclei were determined to be multinuclear osteoclasts and were quantified in each well by counting MNCs in 8 fields/well using a light microscope.

[2] = test system: RAW264 macrophages; test: MTT cytotoxicity assay; type: cell-based, murine; details: at the highest tested concentration
Method: After incubation of cells for one day, media was aspired and replaced with new one supplemented with treatments, whereas controls contained only DMSO. Cells were then kept at 37 °C for three days. Finally, 50 µL of 3-(4,5-dimethylthiazol-2-yl)−2,[…] bromide (MTT) solution (150 µg/mL in medium) was added after aspiration of medium, incubated under the same conditions for 3 h. Then 200 µL of DMSO were added to each well, after removal of the reaction solution, to dissolve the formed formazan salt crystals, and optical density was measured at 570 nm with a microplate reader.

Row | SMILES | pIC50 [1] | Toxic effect against RAW264 macrophages [2]
1 | COc1cc(O)c2c(c1)C1=CC(O)C(O)CC1(C)OC2=O (stereo not shown) [Compound 8, altenuene] | 4.42 | without cytotoxicity; also recorded: no toxic effect
2 | COCC(O)COc1ccc(C(C)(C)c2ccc(OCC(O)COC)cc2)cc1 (stereo not shown) [Compound 1, 2,2-bis‐[4‐(2‐hydroxy-3-methoxy-propoxy)phenyl]propane] | 4.24 | without cytotoxicity; also recorded: no toxic effect
